Reference: US11377442B2, “Small molecule agonists and antagonists of NR2F6 activity” (ZANDER THERAPEUTICS, INC., priority 2016, dated 2022)

What was measured:
hCyt P450 [1] = target: hCyt P450 (Homo sapiens, UniProt P11712); assay: CYP inhibition; format: in vitro ADME; settings: CYP 2C9-Tolbutamide
hCyt P450 [2] = target: hCyt P450 (Homo sapiens, UniProt P10635); assay: CYP inhibition; format: in vitro ADME; settings: CYP 2D6-Dextromethorphan
hCyt P450 [3] = target: hCyt P450 (Homo sapiens, UniProt P33261); assay: CYP inhibition; format: in vitro ADME; settings: CYP 2C19-Mephenytoin
hCyt P450 [4] = target: hCyt P450 (Homo sapiens, UniProt P08684); assay: CYP inhibition; format: in vitro ADME
hCyt P450 [5] = assay: CYP inhibition; format: in vitro ADME, human
Human PBMC = assay: Cytokines release by hPBMC (PMA+ionomycin activated); format: cell-based
Protocol: FIGS. 18A and 18B show charts of cytokines release by hPBMC and cytotox for Compound 18. For cytokines release and cytotox on hPBMCs compound was tested at 1.25, 2.5, 5, 10, 25 and 50 uM in duplicates. For cytotox on HEK293, HEK293 pGL4 and HEK293 NR2F6 (full length) compound was tested from 50 uM with dilution step 3.16 in duplicates. Human PBMC were activated by 10 ng/mL PMA+500 ng/mL ionomycin. Data were normalized to controls with (100%) w/o compounds.
FIGS. 16A and 16B show results of cytokins release by hPBMC and cytotox for Compound C11. For cytokines release and cytotox on hPBMCs, the Compound was tested at 1.25, 2.5, 5, 10, 25 and 50 uM in duplicates. For cytotox on HEK293, HEK293 pGL4 and HEK293 NR2F6 (full length) cmpd was tested from 50 uM with dilution step 3.16 in duplicates.
The human PBMC were activated by 10 ng/mL PMA+500 ng/mL ionomycin. Data were normalized to controls with (100%) w/o compounds.
For cytokines release and cytotox on hPBMCs each compound was tested at 1.25, 2.5, 5, 10, 25 and 50 uM in duplicates. Human PBMC were activated by 10 ng/mL PMA+500 ng/mL ionomycin. Data were normalized to controls with (100%) w/o cmpds.
FIGS. 61A-61E show further results of cytokine release by hPBMC for Compound D136. Each compound was tested at 1.25, 2.5, 5, 10, 25 and 50 uM in duplicates.
Human PBMC were activated by 10 ng/mL PMA+500 ng/mL ionomycin. Data were normalized to controls with (100%) w/o cmpds.

Chain of hCyt P450 (Homo sapiens, UniProt P08684) (P08684 whole entry): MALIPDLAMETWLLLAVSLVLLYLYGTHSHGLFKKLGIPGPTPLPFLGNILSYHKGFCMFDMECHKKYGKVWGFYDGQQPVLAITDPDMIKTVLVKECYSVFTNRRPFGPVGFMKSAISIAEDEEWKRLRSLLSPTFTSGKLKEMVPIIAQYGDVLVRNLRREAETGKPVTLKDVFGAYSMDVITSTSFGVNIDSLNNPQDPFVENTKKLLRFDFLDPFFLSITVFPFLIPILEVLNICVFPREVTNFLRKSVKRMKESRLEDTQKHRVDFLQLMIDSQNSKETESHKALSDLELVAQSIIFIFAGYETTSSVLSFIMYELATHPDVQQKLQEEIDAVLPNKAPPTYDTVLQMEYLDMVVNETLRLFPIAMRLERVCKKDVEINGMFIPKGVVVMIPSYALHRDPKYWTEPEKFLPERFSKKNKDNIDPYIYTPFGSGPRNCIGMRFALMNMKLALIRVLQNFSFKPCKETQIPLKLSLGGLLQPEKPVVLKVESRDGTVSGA
Chain of hCyt P450 (Homo sapiens, UniProt P11712) (P11712 whole entry): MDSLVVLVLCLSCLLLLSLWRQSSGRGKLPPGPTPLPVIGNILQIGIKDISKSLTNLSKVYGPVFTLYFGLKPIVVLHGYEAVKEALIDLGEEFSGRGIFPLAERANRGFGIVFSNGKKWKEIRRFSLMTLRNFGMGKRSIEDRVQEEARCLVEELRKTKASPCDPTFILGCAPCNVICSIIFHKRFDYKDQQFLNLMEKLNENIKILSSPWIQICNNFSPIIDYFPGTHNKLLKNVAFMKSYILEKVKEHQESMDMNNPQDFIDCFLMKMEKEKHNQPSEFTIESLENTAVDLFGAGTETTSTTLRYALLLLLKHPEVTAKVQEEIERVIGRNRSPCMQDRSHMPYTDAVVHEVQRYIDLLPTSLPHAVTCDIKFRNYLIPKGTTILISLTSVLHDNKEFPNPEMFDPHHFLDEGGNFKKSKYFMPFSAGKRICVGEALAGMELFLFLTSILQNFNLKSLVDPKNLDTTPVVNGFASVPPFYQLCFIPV
Chain of hCyt P450 (Homo sapiens, UniProt P33261) (P33261 whole entry): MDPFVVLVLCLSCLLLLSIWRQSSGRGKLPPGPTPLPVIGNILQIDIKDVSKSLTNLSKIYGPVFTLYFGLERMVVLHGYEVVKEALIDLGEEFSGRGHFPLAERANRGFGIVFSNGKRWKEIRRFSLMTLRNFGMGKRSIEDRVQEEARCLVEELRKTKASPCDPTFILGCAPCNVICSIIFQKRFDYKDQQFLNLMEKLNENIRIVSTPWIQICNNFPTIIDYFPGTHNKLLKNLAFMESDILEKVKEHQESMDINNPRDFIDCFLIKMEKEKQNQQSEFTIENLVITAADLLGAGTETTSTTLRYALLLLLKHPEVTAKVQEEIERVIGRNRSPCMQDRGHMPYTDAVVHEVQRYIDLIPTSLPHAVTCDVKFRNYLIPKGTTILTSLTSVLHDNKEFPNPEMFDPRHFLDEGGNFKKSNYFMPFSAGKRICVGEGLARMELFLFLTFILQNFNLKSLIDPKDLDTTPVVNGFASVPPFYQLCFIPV
Chain of hCyt P450 (Homo sapiens, UniProt P10635) (P10635 whole entry): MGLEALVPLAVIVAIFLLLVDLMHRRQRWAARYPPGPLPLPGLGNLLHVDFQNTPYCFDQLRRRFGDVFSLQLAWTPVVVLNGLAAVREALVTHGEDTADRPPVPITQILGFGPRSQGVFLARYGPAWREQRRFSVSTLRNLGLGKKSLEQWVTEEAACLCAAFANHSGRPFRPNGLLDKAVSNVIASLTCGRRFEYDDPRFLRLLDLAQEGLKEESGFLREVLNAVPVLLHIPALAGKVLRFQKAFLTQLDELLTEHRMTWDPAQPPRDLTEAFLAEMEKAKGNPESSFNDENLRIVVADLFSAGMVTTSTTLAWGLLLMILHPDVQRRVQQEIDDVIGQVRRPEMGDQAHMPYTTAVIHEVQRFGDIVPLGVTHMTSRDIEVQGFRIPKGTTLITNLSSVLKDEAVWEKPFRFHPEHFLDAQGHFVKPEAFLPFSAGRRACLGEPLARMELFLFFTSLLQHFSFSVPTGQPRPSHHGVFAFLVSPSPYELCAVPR

COCCN[C@H]1CS(=O)(=O)C[C@@H]1S(=O)(=O)c1ccc(Cl)cc1 [Compound D136] was tested, and the CYP inhibition conclusion (hCyt P450 [1]) was “no inhi-”, the IC50 (hCyt P450 [1]) was over 10 µM and the CYP inhibition conclusion (hCyt P450 [2]) was “no inhi-”. For the same compound, the IC50 (hCyt P450 [2]) was over 10 µM, the CYP inhibition conclusion (hCyt P450 [3]) was “no inhi-” and the IC50 (hCyt P450 [3]) was over 10 µM. The CYP inhibition conclusion (hCyt P450 [4]; CYP 3A4-Midazolam) was “no inhi-”, the IC50 (hCyt P450 [4]; CYP 3A4-Midazolam) was over 10 µM and the CYP inhibition conclusion (hCyt P450 [4]; CYP 3A4-Testosterone) was “no inhi-”. The IC50 (hCyt P450 [4]; CYP 3A4-Testosterone) was over 10 µM, the “inhibition of 7 major isoforms of hCyt P450” value (hCyt P450 [5]) was “no inhibition” and the “IL1b release activation by hPBMC” value (Human PBMC; at high release activation of others cytokines) was “No IL1b release activation”. The IL-1 inhibition (Human PBMC; human PBMC) was “Selectively inhibits”, the IL-17α inhibition (Human PBMC; human PBMC) was “Selectively inhibits” and the TNF-α inhibition (Human PBMC; human PBMC) was “Selectively inhibits”.
